Entries after “also recorded” stand apart in the source; their conditions may differ.
Assays:
U251 tumors = experiment: SELPi treatment in human U251 GB model; format: in vivo, SCID mice
Experimental: SELPi (0.8 mg/ml) was dissolved in DMSO 0.01%), polyethyleneglycol (93.2 mg/ml), Tween-80 (14.8 mg/ml), and DDW. Mice were treated intravenously (IV) twice a week with PBS, 16 mg/kg SELPi or vehicle (0.01% DMSO, 93.2 mg/ml polyethyleneglycol and 14.8 mg/ml Tween-80 in DDW). Tumor development was followed by monitoring the fluorescence intensity using the CRI Maestro™ imaging system.
Intravital imaging. The CRI Maestro™ non-invasive fluorescence imaging system was used to follow tumor progression in mice bearing mCherry- or iRFP- labeled U251 tumors. Mice were anesthetized by ketamine (150 mg/kg) and xylazine (12 mg/kg) injected IP, and were placed inside the imaging system. Multispectral image-cubes were used through 550-800 nm spectral range in 10 nm steps using excitation (575-605 nm) and emission (645 nm longpass) filter set. Mice autofluorescence and background signals were eliminated by spectral analysis and by applying a linear unmixing algorithm.

primary human microglia = experiment: Nitric oxide secretion evaluation; format: cell-based; conditions: added to rSELP; SELPi 0.5 µM, antibodies 2.5 µg/ml, 24 h
Experimental: Nitric oxide secretion evaluation. Primary human/murine microglia (1 × 10^5 cells/ml) were seeded in PLL-coated plates. Twenty-four hours post-seeding, cells were treated with: 0% serum DMEM, 0% serum DMEM supplemented rSELP (1.5 µg/ml), 0% serum DMEM exposed to rSELP and SELPi (0.5 µM), 0% serum DMEM exposed to rSELP and anti-PSGL-1 neutralizing antibody (2.5 µg/ml), 0% serum DMEM exposed to rSELP and anti-CD44 neutralizing antibody (2.5 µg/ml), or 0% serum DMEM exposed to rSELP and anti-CD24 neutralizing antibody (2.5 µg/ml) for 24 h. Alternatively, macrophages were seeded in 96 well plates (5 × 10^5 cells/ml) treated with macrophages medium, macrophages medium supplemented with rSELP (3.5 µg/ml), macrophages medium supplemented with rSELP and SELPi (0.5 µM), macrophages medium supplemented with rSELP and anti-PSGL-1 neutralizing antibody (2.5 µg/ml), macrophages medium supplemented with rSELP and anti-CD44 neutralizing antibody (2.5 µg/ml) or macrophages medium supplemented with rSELP and anti-CD24 neutralizing antibody (2.5 µg/ml) for 24 h. Medium was then collected for evaluation of nitrite levels by the Total Nitric Oxide and Nitrate/Nitrite Parameter Assay Kit. Optical density was measured by a SpectraMax M5e multi-detection microplate reader system (Molecular Devices).

PD-GB4 tumors = experiment: Local (intraventricular cannula) SELPi treatment in PD-GB PDX model; format: in vivo, SCID mice
Experimental: (§1) Tumor volume was evaluated by MRI. […] Twelve days post cell inoculation, 3 mice per group were euthanized and brain were resected and further processed for histology analysis. […] Brain cannulas (NBT) were implanted intraventricularly in the co-lateral hemisphere and the mice were treated stereotactically via the cannulas (1 µl at 0.2 µl/min flow rate) with PBS, 2 mg/kg SELPi dissolved in DMSO or vehicle (DMSO). Three weeks post cell-inoculation, the mice were euthanized, the cannulas were removed, and tumor volume was evaluated by MRI (MR solutions). Brains were resected for immunostaining.
MRI imaging. Tumor bearing mice were imaged at the Sackler Cellular & Molecular Imaging Center (SCMIC), Tel Aviv University. Mice were anesthetized by ketamine (150 mg/kg) and xylazine (12 mg/kg) injected IP. T1 with contrast agent (Magnetol, Gd-DTPA, Soreq M.R.C. Israel Radiopharmaceuticals) and T2 weighted images were taken by 4.7T MRI - MRS 4000™ (MR solutions).

[1] = Blood chemistry and blood count after systemic SELPi; format: in vivo, c57/BL mice; conditions: single IV dose 16 mg/kg, healthy mice, 24 h
Experimental: To test the effect of SELPi treatment in vivo on mice blood chemistry and blood count, c57/BL mice were injected with 16 mg/kg SELPi IV. Twenty-four hours following injecting, mice were euthanized and blood was collected. Blood samples were analyzed by AML Ltd (Herzliya, Israel). For all models, 50 × 10^3 GB cells were stereotactically injected in 5 µl at 1 µl/min flow rate. Injection coordination relative to the mouse Bregma point were: 2 mm lateral (left), 0.5 mm anterior, 3.5 mm ventral.

iAGR53 tumors = experiment: SELPi treatment in murine mesenchymal iAGR53 GB model; format: in vivo, C57BL/6 mice; conditions: iAGR53, 16 mg/kg SELPi IV QOD
Experimental: as §1
SELPi treatments. KF 38789 (SELPi) is a commercially-available P-Selectin inhibitor manufactured by Tocris BioScience. […] This compound is commonly used for research of immune-related processes such as tumor metastases formation. For the experiment described above, SELPi (0.8 mg/ml) was dissolved in DMSO (0.01%), polyethyleneglycol (93.2 mg/ml), Tween-80 (14.8 mg/ml) and DDW. Mice were injected with 16 mg/kg IV, twice a week, three times a week or QOD as described above. As control (vehicle), mice were injected with DMSO (0.01%), polyethyleneglycol (93.2 mg/ml), Tween-80 (14.8 mg/ml), in DDW at equivalent volume.
MRI imaging. Tumor bearing mice were imaged at the Sackler Cellular & Molecular Imaging Center (SCMIC), Tel Aviv University. […]

SMILES: COc1ccc(C2CC(c3c(O)cc(C)oc3=O)=NCCS2)c(OC)c1 (stereo not shown) [SELPi, 3-[7-(2,4-Dimethoxyphenyl)-2,3,6,7-tetrahydro-1,4-thiazepin-5-yl]-4-hydroxy-6-methyl-2H-pyran-2-one]
- blood vessel density (CD31) (U251 tumors; U251 tumors): reduction
- invasion of GB cells (H&E) (U251 tumors; U251 tumors): reduced
- microglia activation (Iba1) (U251 tumors; U251 tumors): reduction
- proliferation of GB cells (Ki-67) (U251 tumors; U251 tumors): reduced
- tumor growth (fluorescence signal, CRI-Maestro) (U251 tumors; iRFP-labeled U251, 16 mg/kg SELPi IV twice a week): reduced the fluorescence signal; also recorded: delayed tumor growth
- restoration of NO levels (primary human microglia): restored
- reduction in tumor volume (MRI) (PD-GB4 tumors; PD-GB4, 2 mg/kg SELPi intraventricular via cannula, 21 days post injection): 67%
- tumor growth (tumor volume, MRI) (PD-GB4 tumors; PD-GB4, local SELPi treatment, day 21): delayed growth
- CD31 density (PD-GB4 tumors; PD-GB4 tumors): reduction
- Iba1 density (PD-GB4 tumors; PD-GB4 tumors): reduction
- invasion of GB cells (PD-GB4 tumors; PD-GB4 tumors): reduced
- proliferation of GB cells (PD-GB4 tumors; PD-GB4 tumors): reduced
- complete blood count: blood lymphocytes [1]: increase in the absolute amount of blood lymphocytes
- blood chemistry ([1]; vs saline, vehicle): no significant changes
- survival (iAGR53 tumors): prolonged the survival
- tumor volume (MRI) (iAGR53 tumors): significant reduction in tumor volume; also recorded: reduced tumor growth
